Source: patent US20250326752A1, “PIPERIDINYL-METHYL-PURINE AMINE SALTS, CRYSTALLINE FORMS, AND THEIR USE IN TREATING MEDICAL DISEASES AND CONDITIONS” (K36 Therapeutics, Inc., priority 2022, published 2025)
Structures can show the parent of a compound that is named as a salt.

Tests used:
[1] = water solubility of the crystalline form in phosphate buffer; assay type: physicochemical; conditions: for solubility: pH 6.8 (phosphate buffer; 50 mM where stated)
[2] = hygroscopicity by dynamic vapor sorption; assay type: physicochemical; conditions: transitioned from 0% to 90% relative humidity
[3] = pH 7.0 (phosphate buffer), 37° C., after 30 minutes
[4] = aqueous buffer, read-out: water solubility of (S)-1-((R)-3-amino-1-(4-((6-amino-9H-purin-9-yl)methyl)-6-(2,5-difluoro-4-methoxyphenyl)pyridin-3-yl)piperidin-3-yl)-2,2-difluoroethan-1-ol

Structure (SMILES)	water solubility of (S)-1-((R)-3-amino-1-(4-((6-amino-9H-purin-9-yl)methyl)-6-(2,5-difluoro-4-methoxyphenyl)pyridin-3-yl)piperidin-3-yl)-2,2-difluoroethan-1-ol [1, 3] [µg/mL]	increase in weight (hygroscopicity by dynamic vapor sorption) [2] [%]	other results
COc1cc(F)c(-c2cc(Cn3cnc4c(N)ncnc43)c(N3CCC[C@](N)([C@H](O)C(F)F)C3)cn2)cc1F [Example 6, (S)-1-((R)-3-amino-1-(4-((6-amino-9H-purin-9-yl)methyl)-6-(2,5-difluoro-4-methoxyphenyl)pyridin-3-yl)piperidin-3-yl)-2,2-difluoroethan-1-ol Sulfuric Acid Salt]	780	–	–
COc1cc(F)c(-c2cc(Cn3cnc4c(N)ncnc43)c(N3CCC[C@](N)([C@H](O)C(F)F)C3)cn2)cc1F [Example 4, (S)-1-((R)-3-amino-1-(4-((6-amino-9H-purin-9-yl)methyl)-6-(2,5-difluoro-4-methoxyphenyl)pyridin-3-yl)piperidin-3-yl)-2,2-difluoroethan-1-ol Hydrochloric Acid Salt]	360	–	–
COc1cc(F)c(-c2cc(Cn3cnc4c(N)ncnc43)c(N3CCC[C@](N)([C@H](O)C(F)F)C3)cn2)cc1F [Example 8, (S)-1-((R)-3-amino-1-(4-((6-amino-9H-purin-9-yl)methyl)-6-(2,5-difluoro-4-methoxyphenyl)pyridin-3-yl)piperidin-3-yl)-2,2-difluoroethan-1-ol Succinic Acid Salt]	1670	–	–
COc1cc(F)c(-c2cc(Cn3cnc4c(N)ncnc43)c(N3CCC[C@](N)([C@H](O)C(F)F)C3)cn2)cc1F [Example 5, (S)-1-((R)-3-amino-1-(4-((6-amino-9H-purin-9-yl)methyl)-6-(2,5-difluoro-4-methoxyphenyl)pyridin-3-yl)piperidin-3-yl)-2,2-difluoroethan-1-ol Sulfuric Acid Salt]	–	6.0	–
COc1cc(F)c(-c2cc(Cn3cnc4c(N)ncnc43)c(N3CCC[C@](N)([C@H](O)C(F)F)C3)cn2)cc1F [Example 2, (S)-1-((R)-3-amino-1-(4-((6-amino-9H-purin-9-yl)methyl)-6-(2,5-difluoro-4-methoxyphenyl)pyridin-3-yl)piperidin-3-yl)-2,2-difluoroethan-1-ol Hydrochloric Acid Salt]	–	1.8	solubility [1, 4]: 210 µg/mL
COc1cc(F)c(-c2cc(Cn3cnc4c(N)ncnc43)c(N3CCC[C@](N)([C@H](O)C(F)F)C3)cn2)cc1F [Example 10, Crystalline L-Malic Acid Salt of (S)-1-((R)-3-amino-1-(4-((6-amino-9H-purin-9-yl)methyl)-6-(2,5-difluoro-4-methoxyphenyl)pyridin-3-yl)piperidin-3-yl)-2,2-difluoroethan-1-ol]	1530	–	–
COc1cc(F)c(-c2cc(Cn3cnc4c(N)ncnc43)c(N3CCC[C@](N)([C@H](O)C(F)F)C3)cn2)cc1F [Example 11, Crystalline L-Tartaric Acid Salt of (S)-1-((R)-3-amino-1-(4-((6-amino-9H-purin-9-yl)methyl)-6-(2,5-difluoro-4-methoxyphenyl)pyridin-3-yl)piperidin-3-yl)-2,2-difluoroethan-1-ol]	540	–	–
COc1cc(F)c(-c2cc(Cn3cnc4c(N)ncnc43)c(N3CCC[C@](N)([C@H](O)C(F)F)C3)cn2)cc1F.Cl [Example 1, (S)-1-((R)-3-amino-1-(4-((6-amino-9H-purin-9-yl)methyl)-6-(2,5-difluoro-4-methoxyphenyl)pyridin-3-yl)piperidin-3-yl)-2,2-difluoroethan-1-ol Hydrochloric Acid Salt]	–	16	solubility [1, 4]: 220 µg/mL
COc1cc(F)c(-c2cc(Cn3cnc4c(N)ncnc43)c(N3CCC[C@](N)([C@H](O)C(F)F)C3)cn2)cc1F.Cl [Example 3, (S)-1-((R)-3-amino-1-(4-((6-amino-9H-purin-9-yl)methyl)-6-(2,5-difluoro-4-methoxyphenyl)pyridin-3-yl)piperidin-3-yl)-2,2-difluoroethan-1-ol Hydrochloric Acid Salt]	–	–	solubility at 30 min ([1]; aqueous buffer, pH 7.0 (phosphate buffer), 37° C., after 30 minutes, read-out: water solubility of (S)-1-((R)-3-amino-1-(4-((6-amino-9H-purin-9-yl)methyl)-6-(2,5-difluoro-4-methoxyphenyl)pyridin-3-yl)piperidin-3-yl)-2,2-difluoroethan-1-ol): 1170 µg/mL
